# “And” between values parts separate entries of the source, which are not always exact repeats. Equal entries are not always repeated.
# B1: IL-10: cytokine IL-10 added during the DC differentiation step (10 ng/ml) (protein, UniProt P22301 19-178, looked up)
# Interleukin-10: SPGQGTQSENSCTHFPGNLPNMLRDLRDAFSRVKTFFQMKDQLDNLLLKESLLEDFKGYLGCQALSEMIQFYLEEVMPQAENQDPDIKAHVNSLGENLKTLRLRLRRCHRFLPCENKSKAVEQVKNAFNKLQEKGIYKAMSEFDIFINYIEAYMTMKIRN
# How the values were obtained:
# [1] = test system: monocyte-derived DCs; assay: Label free MS analysis of DC subtypes; format: cell-based, human
# Method: Label-free MS of digested total protein lysates (solubilized in buffer A as described above), was conducted to compare proteomes of control, effector and regulatory DC subsets. Briefly, a common ultrafiltration device was used for detergent removal (CHAPS) to enable subsequent proteome analysis (Filter-aided sample preparation, FASP). 100 μg of proteins were mixed with urea-containing buffers in the filter unit (Amicon Ultra-0.5 ml, Ultracel-10 kDa Membrane, Millipore, Molsheim, France), reduced with 20 mM DTT, alkylated with 50 mM iodoacetamide, digested with Lys-C (37° C., 5 h, ratio 1/50, Sigma-Aldrich) and then with trypsin (37° C., overnight, ratio 1/50). After digestion, peptides were desalted using RPC18 Dynal magnetic beads (Invitrogen), acidified with FA and 1.5 to 2 μg of tryptic peptides were analyzed by nanoLC-MS or nanoLC-MS/MS.
# In MS mode, full scan MS spectra were acquired from m/z 280 to 1500 (1 MS spectrum of 0.8 s) during 270 min. Ion intensities recorded in LC-MS data were analyzed using Progenesis LC-MS v3.1 software (Non Linear Dynamics) to provide reliable measurements of peptide (feature) abundance across samples. Internal calibration was performed by enabling the lock mass option in MS mode (minimum intensity>200 and mass±0.015 Da). […] Targeted nanoLC-MS/MS were accomplished by means of an inclusion mass list in the MS instrument method. […] Identification parameters were identical to those described for 2D-DIGE analysis. […] For accurate mass measurements, the lock mass option was enabled in MS and MS/MS mode.
# [2] = test system: monocyte-derived DCs; assay: Quantitative real-time PCR of marker genes in treated DCs
# Method: Total RNA was extracted from treated DCs or PBMCs using RNeasy mini kits (Qiagen, Courtaboeuf, France) and cDNAs were obtained using TaqMan reverse transcription reagents (Applied Biosystems, Les Ulis, France) as per the manufacturer's instructions. Messenger RNA expression was evaluated by quantitative PCR on a 7900HT real-time PCR system (Applied Biosystems) with predesigned Taqman gene expression assays and reagents, according to the manufacturer's instructions. Expression of the following genes was assessed in DCs or PBMCs: GILZ (Hs00608272_m1), IDO (Hs00158032_m1), RALDH-1 (Hs00167445_m1), RALDH-2 (Hs00180254_m1), ANXA1 (Hs00167549_m1), CLIC2 (Hs01574555_m)1, FKBP5 (Hs01561001_m1), F13A (Hs00173388_m1), GPX1 (Hs00829989_gH), IMDH2 (Hs00168418_m1), OSF1 (Hs00273458_m1), TPP1 (Hs00166099_m1), C1QA (Hs00381122_m1), C1QB (Hs00608019_m1), C1QC (Hs00757779_m1), CATB (Hs00947433_m1), CATC (Hs00175188_m1), STAB1 (Hs01109068_m1), MRC1 (Hs00267207_m1), CD71 (Hs00951083_m1), FSCN1 (Hs00979631_g1), IRF4 (Hs01056533_m1), MX1 (Hs00895608_m1), NMES1 (Hs00260902_m1), TRAF1 (Hs01090170_m1). Expression of the following genes was assessed in T cells: IFNg (Hs00989291_m1), IL-4 (Hs00174122_m1), IL-10 (Hs00961622_m1) and IL-17A (Hs00174383_m1). Data were interpreted for each target gene in comparison with endogenous β-actin (Hs99999903_m1) or GAPDH (Hs03929097_g1) as controls. The relative amount of target genes in each sample was calculated in comparison with the calibrator sample using the ΔΔCt The magnitude of gene induction was calculated using the formula 2^−ΔΔCt=2^(−ΔCt for stimulated cells−ΔCt for unstimulated cells).
# [3] = test system: monocyte-derived DCs; assay: Western blot analysis of marker proteins in treated DCs; format: cell-based, human
# Method: NuPAGE-Western blotting was carried out according to standard procedures (NuPAGE technical guide, Invitrogen). […] H00004599-[…], 1/500) from Abnova (Taipei, Taiwan), anti-CD71 (Cat. no. […] The rabbit polyclonal serum raised against GILZ was previously described (see […], et al. […] Peroxidase-conjugated goat anti-mouse and anti-rabbit secondary antibodies were both obtained from Jackson Immunoresearch Laboratories (Sufflok, England), and the chemiluminescence detection kit was from Pierce (SuperSignal West Pico Chemiluminescent Substrate, Fisher Scientific, Illkirch, France). Western blot signals were acquired with a CCD camera (Fusion FX7, Vilber-Lourmat, Marnes La Vallée, France) and band volume was quantified using the Bio-1D software (Vilber-Lourmat). β-actin or GAPDH were used as loading controls.
# [4] = test system: monocyte-derived DCs; assay: Anti-inflammatory effect: treated DCs stimulated with LPS 24 h (costimulatory molecules, cytokine secretion); format: cell-based, human
# [5] = test system: monocyte-derived DCs; assay: Cell surface phenotype of treated DCs by flow cytometry; format: cell-based, human; details: treatment during the differentiation step
# Method: For immuno-fluorescence staining, cells were harvested, washed in PBS and incubated for 20 min at 4° C. with the following mAbs: FITC anti-CD14, FITC anti-CD80, PE anti-CD86, PC5 anti-CD83 (Beckman coulter), FITC anti-ILT2, PE anti-ILT4, PC5 anti-ILT3 (R&D systems) or PE-CD11c (Miltenyi Biotec, Paris, France). Cells were stained with corresponding isotype-matched control mAbs and analyzed by flow cytometry.
# [6] = moDCs treated 24 h, one value per peptide
# [7] = tolerogenic DC models (model B)
molecule,measurement,setting,value
"C[C@@H]1C[C@H]2[C@@H]3CCC4=CC(=O)C=C[C@]4(C)[C@@]3(F)[C@@H](O)C[C@]2(C)[C@@]1(O)C(=O)CO [DEX, dexamethasone]",abundance of the m/z 865.70 molecular ion,[1]; moDCs treated 24 h,16300
same,Annexin A5 (ANXA5) average normalized abundance,[1]; [6],16940 and 11135
same,Annexin A6 (ANXA6) average normalized abundance,[1]; [6],3594 and 2084
same,Chloride intracellular channel protein 2 (CLIC2) average normalized abundance,[1]; [6],3857 and 4306
same,Complement C1q subcomponent subunit C (C1QC) average normalized abundance,[1]; [6],4308 and 4812 and 2406 and 2725
same,Cystatin-C (CYTC) average normalized abundance,[1]; [6],7747 and 6610 and 5925
same,Dipeptidyl peptidase 1 (CATC) average normalized abundance,[1]; [6],9396 and 14732 and 15459
same,Gelsolin precursor (GELS) average normalized abundance,[1]; [6],5372 and 6735
same,Integrin alpha-M (ITAM) average normalized abundance,[1]; [6],3832
same,Interferon-induced GTP-binding protein Mx1 (MX1) average normalized abundance,[1]; [6],1192
same,Neuroblast differentiation-associated protein AHNAK (AHNK) average normalized abundance,[1]; [6],2629 and 3047
same,Normal mucosa of esophagus-specific gene 1 protein (NMES1) average normalized abundance,[1]; [6],2947 and 2380
same,Peptidyl-prolyl cis-trans isomerase A (PPIA) average normalized abundance,[1]; [6],18929 and 14751
same,Peptidyl-prolyl cis-trans isomerase FKBP5 average normalized abundance,[1]; [6],3640 and 5224 and 4046
same,Pleckstrin (PLEK) average normalized abundance,[1]; [6],5583 and 4404
same,Proteasome subunit alpha type-7 (PSA7) average normalized abundance,[1]; [6],3617 and 2212
same,Sequestosome-1 (SQSTM) average normalized abundance,[1]; [6],1340 and 2411
same,TNF receptor-associated factor 1 (TRAF1) average normalized abundance,[1]; [6],1732 and 2223
same,Transferrin receptor protein 1 (TFR1) average normalized abundance,[1]; [6],706 and 1195
same,WD repeat-containing protein 1 (WDR1) average normalized abundance,[1]; [6],2581 and 2605
same,C1QC specific peptides increase,[1]; tolerogenic DEX-DCs,≤ 5 fold
same,"C1QA, C1QB and STAB1 gene expression increase",[2]; DEX-DCs compared with Ctrl-DCs,≤ 12 fold
same,FKBP5 and F13A gene expression increase,[2]; DEX-DCs relative to Ctrl-DCs,≤ 15 fold
same,ANXA1 protein level,[3]; DEX-DCs compared with Ctrl-DCs,1.4 fold
same,FKBP5 protein induction,[3]; DEX-DCs compared with Ctrl-DCs,2.6 fold
same,C1Q protein level,[3]; regulatory DEX-DCs,12 fold
same,CATC protein level,[3]; regulatory DEX-DCs,1.5 fold
same,MRC1 protein level,[3]; regulatory DEX-DCs,1.4 fold
same,STAB1 protein level,[3]; regulatory DEX-DCs,2.2 fold
"C=C1/C(=C\C=C2/CCC[C@]3(C)[C@@H]([C@H](C)CCCC(C)(C)O)CC[C@@H]23)C[C@@H](O)C[C@@H]1O [VitD3, 1,25 dihydroxy-vitamin D3]","IL-6, IL-8 and TNF-α secretion after LPS stimulation",[4],left uninhibited
same,CD14 expression,[5],CD14^med
same,ILT3 expression,[5],ILT3^high
TGFb: cytokine TGFb added during the DC differentiation step (20 ng/ml),CD14 expression,[5],CD14^neg
same,ILT2 expression,[5],ILT2^med
same,"ANXA1, CATC and GILZ proteins",[3]; [7],upregulated
B1,CATC gene induction,[2]; [7],detected
same,CD14 expression,[5],CD14^high
same,ILT4 expression,[5],ILT4high
same,"F13A, MRC1 and STAB1 proteins","[3]; tolerogenic DC models (model B), DEX 24 h or differentiation",upregulated

# — patent US10190166B2, “Methods for identifying dendritic cell subsets, for determining if a patient is developing a regulatory or an effector immune response, and for determining response to immunotherapy” (STALLERGENES, priority 2011, dated 2019)
